Measured values taken from PMC8132061, “An Insulin‐Inspired Supramolecular Hydrogel for Prevention of Type 1 Diabetes” (Advanced Science, 2021).
Non-standard residues stand in square brackets, D forms with d. Residues, ends and D or L forms follow the SMILES beside them. *: point of attachment. Acetyl(2-naphthyl) = O=C(Cc1ccc2ccccc2c1)*

Key:
[1] = target: human insulin receptor protein (Homo sapiens, UniProt P06213); assay: Microscale thermophoresis (MST) binding to insulin receptor; conditions: Monolith NT.115, Recombinant Human Insulin R/CD220 (aa 28-944), 37 °C, read-out: dissociation constant (K D) to human insulin receptor protein
Procedure: 2‐Cl‐trityl chloride resin (1.1 mmol g^−1) was obtained from Nankai University resin Co., Ltd. Fmoc‐amino acids and o‐benzotriazol‐1‐yl‐N,N,N′,N′‐tetramethyluronium hexafluorophosphate (HBTU) were acquired from GL Biochem (Shanghai). Hydogels were prepared and respective endotoxin levels of formula were tested as previously reported.^[ ^23 , ^24 ^] Ins2_9‐23 peptide (SHLVEALYLVCGERGR; endotoxins <1 EU mg^−1) was supplied by Bankpeptide (Hefei, China). The BD Pharmingen FoxP3 staining kit was from (BD Biosciences, Beijing, China). Aluminum hydroxide was purchased from Sigma‐Aldrich (Shanghai, China). Antibodies used for flow cytometry analysis were purchased from eBioscience (CA, USA) and antibodies used for immunofluorescence staining were obtained from Abcam (Shanghai, China). Cytokine chip microarray was performed by Beijing Genomics Institute (Beijing, China). Recombinant Human Insulin R/CD220 (aa 28‐944) Protein was ordered from R&D Systems (Shanghai, China). Mouse Insulin EZRMI‐13 ELISA kit was from Millipore (Merck, UK). […]
All peptides in the study were synthesized by standard solid‐phase peptide synthesis (SPPS), and purified by high performance liquid chromatography (HPLC). […] CD spectrum were measured by a BioLogic (MOS‐450) system. […] The release behaviors of peptides was analyzed by liquid chromatograph (LC2020). […]

[2] = In vivo retention of Cy5.5-labeled hydrogel/formula (fluorescence imaging); conditions: 50 µL subcutaneous inguinal, 8-weeks old female NOD mice, imaged every 6 h at 640 nm excitation
Procedure: 8‐weeks old female NOD mice were subcutaneously injected with a volume of 50 µL Cy5.5‐labeled peptide hydrogels/formulas in inguinal region. In vivo peptide retention was observed every 6 h at 640 nm excitation wavelength via Cri Maestro In‐vivo imaging System (Xenogen, IVIS Lumina II).

[3] = system: OVA-induced immune responses; conditions: ref 16a; cited from earlier work
From the text: Poor tolerance induction was also observed from the Nap‐GFFY group (Figure 2A, red dotted line; 60% T1D onset). […] In the present study, when both isoforms of Nap‐GFFY were used, the lack of stability and adjuvant potency of L‐GFFY resulted both in reduced antigenic and adjuvant impact, rendering the Nap‐GFFY formulation less eff ... || Supramolecular peptide hydrogel has, in the past 5 years, been extensively investigated as immune adjuvant to improve efficacy of antigen presentation. By using peptide hydrogel, which functions both as antigen depot and immune adjuvant, it eliminates the likely protein‐induced hypersensitivity in vivo and the need for additional adjuvant^[ ^15 , ^37 ^] […] Because the peptide sequence GFFY is conserved in multiple self‐antigens of autoimmune diabetes, we now have assessed its poten ...

[4] = system: pancreatic islets; assay: Immunofluorescence of pancreatic islets (morphology, immune cell infiltration), prevention study; type: in vivo, NOD mice
Procedure: Female NOD mice (3 weeks of age) were immunized subcutaneously under the front left leg with Nap‐G^dF^dF^dY, Nap‐GFFY, Nap‐G^dF^dA^dY, Nap‐^dF^dF, Ac‐G^dF^dF^dY (1 mg mL^−1, 50–70 µL), and Alum+Ins2_9‐23 (50 µg) and endotoxin‐free PBS once a week for 5 consecutive weeks (from 3‐weeks old to 7‐weeks old) and maintained in specific pathogen free facilities for up to 36 or 52 weeks (n = 3–10 per group). Random plasma glucose level and body weight of all mice were noted weekly from week 8 till the end of experiment with an OneTouch Ultra blood glucose meter (Lifescan Inc., Milpitas, CA, USA). Mice were classified as diabetic if random plasma glucose level exceeded 11.1 mmol L^−1 for 3 consecutive weeks. IPGTT was performed in all treatment groups at week 14, week 20, and week 36. Serum samples were obtained from all mice at the age of week 14, week 20, and week 36 for cytokine chip microarray, which was performed by the Beijing Genomics Institute. Serum insulin level was determined in 10 µL serum samples of each animal using a mouse insulin ELISA kit according to the manufacture's instruction.
Immunofluorescence staining was performed following procedures that were previously detailed.^[ ^18b,c ^] Pancreas were extracted and paraffin‐embedded before being sectioned (5 µm width) onto microscopic slides. For immunofluorescence staining, antigen retrieval was performed followed by exposure to primary antibodies at 4 ℃ overnight. The pancreas sections were then washed with PBS and staining with secondary antibody for 1–2 h at room temperature and examined under a fluorescence microscope (Olympus BX3‐25ND25, Japan).

[5] = Gelation test and TEM of hydrogels/formulas; type: physicochemical; conditions: after heating-cooling
From the text: We first tested the gelation properties of Nap‐G^dF^dF^dY and controlled peptides (Nap‐GFFY, Nap‐^dF^dF, Nap‐G^dF^dA^dY, and Ac‐G^dF^dF^dY). […] The nanostructures of these hydrogels and solutions were subsequently observed by transmission electron microscopy (TEM). […] The diameter of its nanofiber was about 12 nm. […] Insulin mimicking requires a specific conformation of the self‐assembled peptide Nap‐G^dF^dF^dY for in vivo performance, indicating a secondary structure examination is required. We obtained the circular dichroism (CD) spectrum of peptide within the hydrogel at 37 °C.
(§1) All peptides in the study were synthesized by standard solid‐phase peptide synthesis (SPPS), and purified by high performance liquid chromatography (HPLC). Hydrogels/formulas were prepared by heating–cooling method. Negative staining technique was used to observe the nanostructures of materials by using TEM (HITACHI HT7700 Exalens). CD spectrum were measured by a BioLogic (MOS‐450) system. Rheology test was carried out on an AR 2000ex system (TA instrument). The release behaviors of peptides was analyzed by liquid chromatograph (LC2020). Microscale thermophoresis and analysis of binding force was performed by using the Monolith NT.115 system (NanoTemper Technologies, Germany). All samples were tested at the temperature of 37 °C.

[6] = system: T1D onset in NOD mice; assay: T1D prevention study, incidence of T1D onset; type: in vivo, female NOD mice; conditions: 1 mg mL^-1, 50-70 µL s.c. once a week for 5 weeks from 3 weeks of age
Procedure: Female NOD mice were inoculated with different hydrogel formulations 3 weeks of age. PBS and aluminum hydroxide+Ins2_9‐23 (Alum+Ins2_9‐23) were used as negative and positive controls, respectively. Random blood glucose (RBG) levels were measured weekly and mice with RBG levels above 11.1 mmol L^−1 for more than 3 consecutive weeks were considered “diabetic” in the present study.

[7] = system: bone marrow derived dendritic cells (BMDCs); set-up: method as in PMID 31244959; conditions: ref 16b; cited from earlier work
[8] = Peptide release from hydrogel/solution; type: physicochemical; conditions: within 12 h, 37 °C, LC (LC2020)
Procedure: as §1

Row | Kd [1] | in vivo retention time (fluorescence signal) [2] | Compound | in vivo stability vs L-isoform Nap-GFFY [3] | islet immune cell infiltration ([4]; immunofluorescence, prevention study) | immune cell infiltration per islet over Nap-G^dF^dF^dY ([4]; over Nap-G^dF^dF^dY, p < 0.01) | average % of immune cell infiltration per islet ([4]; per islet, mean ± s.e.m., n = 5-20) | gelation property [5] | T1D onset [6] | CD40/CD80 expression on BMDCs [7] | TNF-α in cell culture supernatant of BMDCs [7] | peptide released from gel [8]
1 | 53.9 µM | about 36 h | O=C(Cc1ccc2ccccc2c1)NCC(=O)N[C@H](Cc1ccccc1)C(=O)N[C@H](Cc1ccccc1)C(=O)N[C@H](Cc1ccc(O)cc1)C(=O)O [Nap‐G^dF^dF^dY] ({Acetyl(2-naphthyl)}-G[dF][dF][dY]-OH) | preferentially more stable in vivo |  |  |  |  |  |  |  | 
2 |  | about 30 h | O=C(Cc1ccc2ccccc2c1)N[C@H](Cc1ccccc1)C(=O)N[C@H](Cc1ccccc1)C(=O)O [Nap‐^dF^dF] |  |  |  |  |  |  |  |  | 

Row | Compound | Kd [1] | in vivo retention time (fluorescence signal) [2] | in vivo stability vs L-isoform Nap-GFFY [3] | islet immune cell infiltration ([4]; immunofluorescence, prevention study) | immune cell infiltration per islet over Nap-G^dF^dF^dY ([4]; over Nap-G^dF^dF^dY, p < 0.01) | average % of immune cell infiltration per islet ([4]; per islet, mean ± s.e.m., n = 5-20) | gelation property [5] | T1D onset [6] | CD40/CD80 expression on BMDCs [7] | TNF-α in cell culture supernatant of BMDCs [7] | peptide released from gel [8]
3 | Nap‐GFFY |  | about 30 h |  | substantial immune cell infiltration | 248 ± 25 % over Nap-GdFdFdY | 38.5 ± 3.8 % per islet | could swiftly form transparent hydrogels | 60% | significant increase expression of CD40/CD80 | elevated | about 40%
